In patent US8440813B2, “Antiviral nucleoside analogs” (BioCryst Pharmaceuticals, Inc., priority 2007, dated 2013) one finds melting point data, which are given here for two compounds.

For `CN(C)c1ncnn2c([C@@H]3O[C@H](CO)[C@@H](O)[C@@]3(C)O)ccc12` [Example 2, (2S,3R,4R,5R)-2-(4-(Dimethylamino)pyrrolo[1,2-f][1,2,4]triazin-7-yl)-5-(hydroxymethyl)-3-methyltetrahydrofuran-3,4-diol], the melting point was 181 °C.

Compound `C=Cc1cc([C@@H]2O[C@H](CO)[C@@H](O)[C@@]2(C)O)n2ncnc(N)c12` [Example 4, (2S,3R,4R,5R)-2-(4-Amino-5-vinylpyrrolo[1,2-f][1,2,4]triazin-7-yl)-5-(hydroxymethyl)-3-methyltetrahydrofuran-3,4-diol] registered a melting point of 128 to 131 °C.
